Columns and labels:
[1] = target: T1, mouse Dvl1 PDZ domain (mDvl1 residues 247-341) (Mus musculus, UniProt P51141, C338A); experiment: […]-HSQC NMR chemical shift titration; assay type: binding
T1 sequence (P51141 247-341 C338A): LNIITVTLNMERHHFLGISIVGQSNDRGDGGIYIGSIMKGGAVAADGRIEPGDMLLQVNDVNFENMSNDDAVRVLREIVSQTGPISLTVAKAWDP

[2] = target: T1, mouse Dvl1 PDZ domain (mDvl1 residues 247-341); experiment: fluorescence polarization competition with Rox-DprC; assay type: binding

| SMILES | Kd [1] [µM] | Ki [2] [µM] |
| --- | --- | --- |
| Cc1ccc(C[C@H](NC(=O)c2cccc(F)c2)C(=O)N[C@@H](CC(C)C)C(=O)O)cc1 [J01-007] | 2.27 | 4.2 ± 0.46 |
| Cc1ccc(C[C@H](NC(=O)c2cccc(C#N)c2)C(=O)N[C@@H](CC(C)C)C(=O)O)cc1 [J01-012] | 1.83 | – |
| Cc1ccc(C[C@H](NC(=O)c2cccc(C)c2)C(=O)N[C@@H](CC(C)C)C(=O)O)cc1 [J01-015] | 2.96 | 3.5 ± 0.21 |
| Cc1ccc(C[C@H](NC(=O)c2cc(C)c(F)c(F)c2)C(=O)N[C@@H](CC(C)C)C(=O)O)cc1 [J01-017a] | – | 1.5 ± 0.52 |
| CC(C)C[C@H](NC(=O)[C@H](Cc1ccccc1)NC(=O)c1cccc(F)c1)C(=O)O [J02-001] | 7.67 | – |
| CC(C)C[C@H](NC(=O)[C@H](Cc1ccccc1)NC(=O)c1ccc(F)cc1)C(=O)O [J02-002] | 3.49 | – |

Source: PMC3310947 (Chemical biology & drug design, 2012)
